pIC50: −log10 of the molar value.
Target: Nociceptin receptor (Homo sapiens, UniProt P41146)
Experiment: Cell-Based NOP Assay: Formula (I) compounds were tested for antagonism of the nociceptin receptor (NOP) in a cell-based cAMP assay, using the LANCE cAMP Detection Kit, Perkin Elmer (Waltham, Mass.). This assay (LANCE cAMP) is a homogeneous, time-resolved fluorescence resonance energy transfer (TR-FRET) immunoassay designed to measure cAMP produced upon modulation of adenylyl cyclase activity by G protein-coupled receptors (GPCRs).ProtocolCells expressing human opioid NOP (ValiScreen cell line, cat #ES-230-C Perkin Elmer (Waltham, Mass.) were dispensed in simulation buffer (5 mM Hepes, 0.1% BSA, 0.5 mM IBMX in Hanks Buffered Saline Solution) at 2.5 μL cells per well (400 cells/well) into a 1536 white TC-treated assay plate. Compound was then added and plates were incubated for 15 minutes at room temperature. To each well was added 2.5 μL of a solution containing forskolin (3 μM final) and nociceptin peptide (390 pM final) diluted in stimulation buffer, and the plates were incubated for 30 minutes at room temperature. To each well was dispensed 5 μL of LANCE Ultra detection (1:300 dilution of anti-cAMP ULight with a 1:100 dilution of Eu-cAMP tracer diluted in cAMP Detection Buffer) reagent, and the plates were incubated for 1 hr at room temperature. The plate was then read on the ViewLux microplate reader (Perkin Elmer, Waltham, Mass.) using the LANCE 1536 protocol with 60 second exposure times and 50 μs delay. This protocol has an excitation wavelength of 340 nm (DUG11 filter) and emission wavelengths of 615 nm (Eu-Donor) and 665 nm (Alexa 647 cAMP antibody acceptor).Data AnalysisData was analyzed, normalized, and visualized using ACAS (John McNeil & Co.). Efficacy was calculated using activity of the vehicle (DMSO) as 0% efficacy and the activity of the corresponding reference positive control (SCH 221510, Tocris Bioscience (Pittsburgh, Pa.), Catalog number 3240) as 100% efficacy. Activity was calculated as the ratio of donor and acceptor emissions. All curve fits and IC50 determinations were performed using a non-linear regression model. The IC50 value was measured as the concentration at which half-maximal response was calculated.

Chain of Nociceptin receptor (P41146 whole entry): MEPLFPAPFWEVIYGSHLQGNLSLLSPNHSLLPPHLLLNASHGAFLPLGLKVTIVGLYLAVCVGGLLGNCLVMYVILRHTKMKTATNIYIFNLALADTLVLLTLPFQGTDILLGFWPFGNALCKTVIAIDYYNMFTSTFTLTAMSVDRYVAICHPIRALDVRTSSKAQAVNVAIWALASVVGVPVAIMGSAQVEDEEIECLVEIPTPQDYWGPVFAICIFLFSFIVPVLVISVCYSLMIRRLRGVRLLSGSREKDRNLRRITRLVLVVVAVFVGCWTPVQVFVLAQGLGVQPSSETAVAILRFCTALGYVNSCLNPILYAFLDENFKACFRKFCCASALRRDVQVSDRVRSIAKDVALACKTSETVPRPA

pIC50 | SMILES
7.00 to 8.00 | Cc1cc(F)c(F)cc1[C@H]1CC[C@@H](CCNC2(C(N)=O)CCOCC2)CC1
> 9.00 | OC1COCCC1NCC[C@H]1CC[C@@H](c2ccc(F)cc2Cl)CC1 (some centres undefined)
8.00 to 9.00 | Cc1cc(F)cc(F)c1[C@H]1CC[C@H](CCNC2(C(N)=O)CCOCC2)CC1
8.00 to 9.00 | Cc1cc(F)ccc1C1CCC(CCNC2CCOCC2)CC1 (centres undefined)
7.00 to 8.00 | NC(=O)C1(NCC[C@H]2CC[C@@H](c3ccc(F)cc3Cl)CC2)CCCC1
7.00 to 8.00 | COCC1(NCC[C@H]2CC[C@@H](c3ccc(F)cc3Cl)CC2)CCNC(=O)C1 (some centres undefined)
8.00 to 9.00 | Cc1cc(F)cc(F)c1[C@H]1CC[C@@H](CCNC2(C(N)=O)CCOCC2)CC1
6.00 to 7.00 | Cc1cccnc1[C@H]1CC[C@H](CCNC2CCOCC2)CC1
> 9.00 | CNC(=O)C1(NCC[C@H]2CC[C@@H](c3ccc(F)cc3Cl)CC2)CCOCC1
7.00 to 8.00 | CCNC(=O)C1(NCC[C@H]2CC[C@H](c3ncc(F)cc3Cl)CC2)CCOCC1
6.00 to 7.00 | Cc1c(C#N)cccc1[C@H]1CC[C@@H](CCNC2CCOCC2)CC1
8.00 to 9.00 | CO[C@@H]1COCC[C@@H]1NCC[C@H]1CC[C@@H](c2ccc(F)cc2Cl)CC1
7.00 to 8.00 | CC1(NCCC2CCC(c3ncc(F)cc3Cl)CC2)CCCC1 (centres undefined)
> 9.00 | Fc1ccc(C2CCC(CCNC3CCOCC3)CC2)c(Cl)c1 (mixture of isomers)
6.00 to 7.00 | Cc1cnccc1C1CCC(CCNC2CCCCC2)CC1 (centres undefined)
6.00 to 7.00 | NC(=O)C1(NCCC2CCC(c3ccc(F)cc3F)CC2)CCCC1 (centres undefined)
6.00 to 7.00 | COCC1(NCCC2CCC(c3cccc(F)c3Cl)CC2)CCOCC1 (centres undefined)
8.00 to 9.00 | CNC(=O)C1(NCC[C@H]2CC[C@H](c3ncc(F)cc3Cl)CC2)CCOCC1
7.00 to 8.00 | COCC1(NCCC2CCC(c3ccccc3Cl)CC2)CCOCC1 (centres undefined)
8.00 to 9.00 | Fc1ccc([C@H]2CC[C@H](CCNC3CCOCC3)CC2)c(Cl)c1
6.00 to 7.00 | Fc1cnc([C@H]2CC[C@@H](CCNC3CCOCC3)CC2)nc1
7.00 to 8.00 | Fc1ccc(Cl)c(C2CCC(CCNC3CCCC3)CC2)c1 (centres undefined)
8.00 to 9.00 | Fc1ccc([C@H]2CC[C@H](CCNC3CCOCC3)CC2)c(F)c1
6.00 to 7.00 | CNC(=O)C1(NCCC2CCC(c3ccc(Cl)cc3F)CC2)CCCC1 (centres undefined)
8.00 to 9.00 | Clc1ccccc1C1CCC(CCNC2CCOCC2)CC1 (centres undefined)

pIC50 | SMILES
7.00 to 8.00 | NC(=O)C1(NCC[C@H]2CC[C@@H](c3ncc(F)cc3Cl)CC2)CCOCC1
> 9.00 | Fc1ccc([C@H]2CC[C@@H](CCNC3CCOCC3)CC2)c(Cl)c1
> 9.00 | Fc1ccc([C@H]2CC[C@@H](CCNC3CCC(F)(F)C3)CC2)c(Cl)c1 (some centres undefined)
> 9.00 | OC1CCCC1NCC[C@H]1CC[C@@H](c2ccc(F)cc2Cl)CC1 (some centres undefined)
7.00 to 8.00 | NC(=O)C1(NCC[C@H]2CC[C@H](c3ccc(F)cc3Cl)CC2)CCOCC1
8.00 to 9.00 | Cc1cc(F)ccc1[C@H]1CC[C@@H](CCNC2(C(N)=O)CCOCC2)CC1
8.00 to 9.00 | NC(=O)C1(NCC[C@H]2CC[C@H](c3c(F)cc(F)cc3F)CC2)CCOCC1
6.00 to 7.00 | COCC1(NCCC2CCC(c3ncc(F)cc3Cl)CC2)CCOCC1 (centres undefined)
6.00 to 7.00 | COCC1(NCCC2CCC(c3cnccc3C)CC2)CCOCC1 (centres undefined)
6.00 to 7.00 | CC(=O)N1CCC(NCCC2CCC(c3ccc(F)cc3C)CC2)CC1 (centres undefined)
8.00 to 9.00 | O=C1C[C@H](NCC[C@H]2CC[C@@H](c3ncc(F)cc3Cl)CC2)CCN1
6.00 to 7.00 | Cc1cnccc1[C@H]1CC[C@@H](CCNC2CCOCC2)CC1
6.00 to 7.00 | Cc1cnccc1C1CCC(CCNC2CCOCC2)CC1 (centres undefined)
6.00 to 7.00 | Clc1cccnc1C1CCC(CCNC2CCCCC2)CC1 (centres undefined)
8.00 to 9.00 | CCNC(=O)C1(NCC[C@H]2CC[C@@H](c3ccc(F)cc3C(F)(F)F)CC2)CCOCC1
6.00 to 7.00 | NC(=O)N1CCC(NCCC2CCC(c3ncc(F)cc3Cl)CC2)CC1 (centres undefined)
6.00 to 7.00 | Cc1cccnc1C1CCC(CCNC2(C)CCOCC2)CC1 (centres undefined)
6.00 to 7.00 | Cc1cc(F)ccc1C1CCC(CCNC2(C)CCOCC2)CC1 (centres undefined)
7.00 to 8.00 | Cc1cc(F)ccc1[C@H]1CC[C@H](CCNC2(C(N)=O)CCOCC2)CC1
7.00 to 8.00 | COCC1(NCCC2CCC(c3cc(F)ccc3Cl)CC2)CCOCC1 (centres undefined)
8.00 to 9.00 | NC(=O)C1(NCC[C@H]2CC[C@@H](c3c(F)cc(F)cc3Cl)CC2)CCOCC1
7.00 to 8.00 | Fc1ccc([C@H]2CC[C@@H](CCNC3CCCC3(F)F)CC2)c(Cl)c1 (some centres undefined)
6.00 to 7.00 | Cc1cc(F)c(F)cc1[C@H]1CC[C@H](CCNC2(C(N)=O)CCOCC2)CC1
6.00 to 7.00 | CC1(NCCC2CCC(c3ncccc3Cl)CC2)CCCC1 (centres undefined)
7.00 to 8.00 | NC(=O)C1(NCC[C@H]2CC[C@@H](c3cc(F)ccc3Cl)CC2)CCOCC1

pIC50 | SMILES
7.00 to 8.00 | COCC1(NCCC2CCC(c3c(F)cccc3Cl)CC2)CCOCC1 (centres undefined)
6.00 to 7.00 | COCC1(NCC[C@H]2CC[C@H](c3ncc(F)cc3Cl)CC2)CCOCC1
7.00 to 8.00 | Cc1cccnc1C1CCC(CCNC2CCOCC2)CC1 (centres undefined)
6.00 to 7.00 | Cc1cc(F)ccc1C1CCC(CCNC2CCCCC2)CC1 (centres undefined)
8.00 to 9.00 | CNC(=O)C1(NCC[C@H]2CC[C@@H](c3c(F)cncc3Cl)CC2)CCOCC1
6.00 to 7.00 | Cc1nccnc1[C@H]1CC[C@@H](CCNC2CCOCC2)CC1
7.00 to 8.00 | COCC1(NCCC2CCC(c3ccc(F)cc3F)CC2)CCOCC1 (centres undefined)
7.00 to 8.00 | Cc1cc(F)c(F)cc1[C@H]1CC[C@H](CCN[C@@H]2CCNC(=O)C2)CC1
6.00 to 7.00 | Fc1ccc(Cl)c(C2CCC(CCNC3CCCCC3)CC2)c1 (centres undefined)
6.00 to 7.00 | CN1CCC(NCCC2CCC(c3cc(F)ccc3Cl)CC2)CC1 (centres undefined)
6.00 to 7.00 | Oc1cccc([C@H]2CC[C@H](CCNC3CCOCC3)CC2)c1
6.00 to 7.00 | CN1CCC(NCCC2CCC(c3ncc(F)cc3Cl)CC2)CC1 (centres undefined)
7.00 to 8.00 | NC(=O)C1(NCC[C@H]2CC[C@H](c3cc(F)ccc3Cl)CC2)CCOCC1
7.00 to 8.00 | CS(=O)(=O)N1CCC(NCC[C@H]2CC[C@@H](c3ccc(F)cc3Cl)CC2)CC1
6.00 to 7.00 | CC1(NCCC2CCC(c3ncc(F)cc3Cl)CC2)CCOCC1 (centres undefined)
> 9.00 | N#C[C@H]1CC[C@@H](NCC[C@H]2CC[C@@H](c3ccc(F)cc3C(F)(F)F)CC2)CC1
7.00 to 8.00 | NC(=O)C1(NCC[C@H]2CC[C@H](c3ncc(F)cc3Cl)CC2)CCOCC1
8.00 to 9.00 | Cc1cc(F)ccc1[C@H]1CC[C@H](CCNC2CCOCC2)CC1
7.00 to 8.00 | Clc1cccnc1[C@H]1CC[C@@H](CCNC2CCOCC2)CC1
6.00 to 7.00 | Cc1cnccc1[C@H]1CC[C@H](CCNC2CCOCC2)CC1
6.00 to 7.00 | CC1(NCC[C@H]2CC[C@@H](c3ncc(F)cc3Cl)CC2)CCNC(=O)C1 (some centres undefined)
6.00 to 7.00 | NC(=O)C1(NCCC2CCC(c3ccccc3Cl)CC2)CCCC1 (centres undefined)
6.00 to 7.00 | Cc1ccncc1[C@H]1CC[C@@H](CCNC2CCOCC2)CC1
8.00 to 9.00 | Fc1ccc([C@H]2CC[C@@H](CCNC3CCOCC3)CC2)c(F)c1

— ChEMBL document CHEMBL5729163, “Substituted cyclohexyl compounds as NOP inhibiiors” (2022)
